Assay: Solubility test of compound in safe solvent
Assay type: physicochemical
Conditions: 23° C.; for dissolution amount in CHN: cyclohexanone (CHN); for dissolution amount in PGME: propylene glycol monomethyl ether (PGME)
Procedure: The dissolution amounts of compounds obtained in the above synthesis examples 1 to 6 and syntheses 1 and 2 in propylene glycol monomethyl ether (PGME) and cyclohexanone (CHN) were evaluated as follows.
• A: 5.0% by mass≦dissolution amount • B: 3.0% by mass≦dissolution amount<5.0% by mass • C: dissolution amount<3.0% by mass *dissolution amount (% by mass)=mass (g) of compound dissolved in 100 g of solvent of 23° C./(100 g of mass of solvent+mass (g) of compound dissolved in 100 g of solvent of 23° C.)×100

Row | SMILES | dissolution amount in CHN | dissolution amount in PGME
1 | CC(C)c1ccc(C2c3cc(c(O)cc3O)C(c3ccc(C(C)C)cc3)c3cc(c(O)cc3O)C(c3ccc(C(C)C)cc3)c3cc(c(O)cc3O)C(c3ccc(C(C)C)cc3)c3cc2c(O)cc3O)cc1 (stereo not shown) [CR-1A] | C (dissolution amount<3.0% by mass) | B (3.0% by mass≦dissolution amount<5.0% by mass)
2 | Oc1cc(O)c2cc1C(c1ccc(C3CCCCC3)cc1)c1cc(c(O)cc1O)C(c1ccc(C3CCCCC3)cc1)c1cc(c(O)cc1O)C(c1ccc(C3CCCCC3)cc1)c1cc(c(O)cc1O)C2c1ccc(C2CCCCC2)cc1 (stereo not shown) [CR-2A] | B (3.0% by mass≦dissolution amount<5.0% by mass) | B (3.0% by mass≦dissolution amount<5.0% by mass)

Source: patent publication US9182666B2, “Cyclic compound, method for producing the same, radiation-sensitive composition, and resist pattern formation method” (MITSUBISHI GAS CHEMICAL COMPANY, INC., priority 2011, dated 2015)
